Columns and labels:
Format in all cases: cell-based
[1] = target: T1, EGFR-L858R/C797S (H1975-clone #8 cells) (Homo sapiens, UniProt P00533, C797S/L858R); experiment: Cell degradation of EGFR, HTRF assay, H1975-clone#8 (L858R/C797S) cells; settings: 16 h treatment; for DC50: EGFR degradation; for Dmax: maximum percentage of degradation
T1 construct: expressed in transfected cells; host or cells: H1975 (endogenous EGFR knocked out, clone #8)
Procedure: (§1) The EGFR over-expressed cells then underwent knockout, in which the EGFR targeting sgRNA was designed to only target the endogenous EGFR copies and preserve the exogenous EGFR copies. Followed by the knockout, the edited H1975 cells were seeded in 96 well plates at the concentration of 1 cell/cell, cultured for about 2 weeks to allow single clones formation. The formed clones were screened by DNA sequencing and whole exon sequencing analysis for the desired edition.
(§2) H1975-#8 and BaF3-L858R cells are treated with compounds diluted in 0.1% DMSO cell culture medium on day 2, incubate for 16 h, 37° C., 5% CO2. the final concentration of compounds in all assay is start with 10 uM, 5-fold dilution, total 8 doses were included.
(§3) After 16 h treatment, for H1975-#8 cells, add 100 ul HTRF 1× lysis buffer to each well; for BaF3-L858R cells, add 20 μl 4× lysis buffer to each well; seal the plate and incubate 1 hour at room temperature on a plate shaker; Once the cells are lysed, 16 μL of cell lysate are transferred to a PE 384-well HTRF detection plate; 4 μL of pre-mixed HTRF antibodies are added to each well; Cover the plate with a plate sealer, spin 1000 rpm for 1 min, Incubate overnight at room temperature; Read on BMG PheraStar with HTRF protocol (337 nm-665 nm-620 nm).
(§4) High control=Cell group with added DMSO and without compound, indicating microplate readings without EGFR degradation;
(§5) Dmax is the maximum percentage of inhibition (degradation).
(§6) The IC50 (DC50) value of a compound can be obtained by fitting the following equation
(§7) Y=Bottom+(TOP−Bottom)/(1+((IC50/X)^hillslope))
(§8) Wherein, X and Y are known values, and IC50, Hillslope, Top and Bottom are the parameters obtained by fitting with software. […] The experimental data were fitted by calculating and analyzing with Dotmatics data analysis software.

[2] = target: p-EGFR Del19/C797S (H1975-clone #23 cells) (Homo sapiens, UniProt P00533); experiment: Cell p-EGFR inhibition assay, HTRF, H1975-clone#23 (DEL19/C797S) cells; settings: 16 h treatment
Procedure: as §1, with “cell/well,” for “cell/cell,”
(§9) H1975-#23 and BaF3-L858R cells are treated with compounds diluted in 0.1% DMSO cell culture medium on day 2, incubate for 16 h, 37° C., 5% CO2. the final concentration of compounds in all assay is start with 10 uM, 5-fold dilution, total 8 doses were included.
as §3, with “for H1975-#23” for “for H1975-#8”, “add 50” for “add 100”
(§10) High control=Cell group with added DMSO and without compound, indicating microplate readings without p-EGFR inhibited.
(§11) Imax is the maximum percentage of inhibition.
(§12) The IC50 value of a compound can be obtained by fitting the following equation.
as §8

[3] = target: T2, p-EGFR L858R (BaF3-L858R cells) (Homo sapiens, UniProt P00533, L858R); experiment: Cell p-EGFR inhibition assay, HTRF, BaF3-L858R cells; settings: 16 h treatment
T2 construct: host or cells: BaF3
Procedure: (§13) BaF3-L858R (abbv. L858R) cell were purchased from Kangyuan Bochuang Biotechnology (Beijing) Co., Ltd.
as §9
as §3, with “for H1975-#23” for “for H1975-#8”, “add 50” for “add 100”
as §10, §11, §12, §8

[4] = target: T3, EGFR L858R (BaF3-L858R cells) (Homo sapiens, UniProt P00533, L858R); experiment: Cell degradation of EGFR, HTRF assay, BaF3-L858R cells; settings: 16 h treatment; for DC50: EGFR degradation; for Dmax: maximum percentage of degradation
T3 construct: host or cells: BaF3
Procedure: as §13, §2, §3, §4, §5, §6, §7, §8

[5] = maximum percentage of pEGFR inhibition

Row | DC50 [1] [nM] | Dmax [1] [%] | Imax (%) [2, 5] [%] | IC50 ([2]; pEGFR inhibition) [nM] | Imax (%) [3, 5] [%] | IC50 ([3]; pEGFR inhibition) [nM] | DC50 [4] [nM] | Dmax [4] [%] | SMILES
1 | 2.3 | 74.6 | 100.8 | 0.6 | 94.3 | 18.2 | 2.47 | 77 | Cc1cc2cc(n1)-c1cnn(C)c1OC[C@H]1CCC(C1)CN1/C(=N/C2=O)Nc2ccc(N3CCN(C4CCN(c5cc(F)c(C6CCC(=O)NC6=O)c(F)c5)CC4)[C@@H](C)C3)cc21 (stereo partly drawn) [Example 119, (R)-3-(4-(4-((S)-4-((7^1R,7^3S,E)-1^1,2^6-dimethyl-3-oxo-5^2,5^3-dihydro-1^1H,5^1H-9-oxa-4-aza-5(2,1)-benzo[d]imidazola-2(2,4)-pyridina-1(4,5)-pyrazola-7(1,3)-cyclopentanacyclononaphane-5^6-yl)-2-methylpiperazin-1-yl)piperidin-1-yl)-2,6-difluorophenyl)piperidine-2,6-dione]
2 | 0.608 | 55 |  |  |  |  | 12.8 | 86 | Cc1cc2cc(n1)-c1cnn(C)c1OC[C@H]1CC[C@H](C1)CN1/C(=N/C2=O)Nc2ccc(N3CCN(CC4CCN(c5ccc(C6CCC(=O)NC6=O)nc5C)CC4)CC3)cc21 (some centres unmarked) [Example 23, 3-(5-(4-((4-((7^1R,7^3S,E)-1^1,2^6-dimethyl-3-oxo-5^2,5^3-dihydro-1^1H,5^1H-9-oxa-4-aza-5(2,1)-benzo[d]imidazola-2(2,4)-pyridina-1(4,5)-pyrazola-7(1,3)-cyclopentanacyclononaphane-5^6-yl)piperazin-1-yl)methyl)piperidin-1-yl)-6-methylpyridin-2-yl)piperidine-2,6-dione]
3 | 4.28 | 71.7 |  |  |  |  | 6.11 | 86.6 | COC[C@@H]1CN(c2ccc3c(c2)N2C[C@@H]4CC[C@H](COc5c(cnn5C)-c5cc(cc(C)n5)C(=O)/N=C/2N3)C4)CCN1C1CCN(c2cc(F)c([C@H]3CCC(=O)NC3=O)c(F)c2)CC1 [Example 9, (R)-3-(4-(4-((S)-4-((7^1R,7^3S,E)-1^1,2^6-dimethyl-3-oxo-5^2,5^3-dihydro-1^1H,5^1H-9-oxa-4-aza-5(2,1)-benzo[d]imidazola-2(2,4)-pyridina-1(4,5)-pyrazola-7(1,3)-cyclopentanacyclononaphane-5^6-yl)-2-(methoxymethyl)piperazin-1-yl)piperidin-1-yl)-2,6-difluorophenyl)piperidine-2,6-dione]
4 | 0.616 | 90.9 |  |  |  |  | 0.552 | 84 | Cc1cc2cc(n1)-c1cnn(C)c1OC[C@H]1CC[C@H](C1)CN1/C(=N/C2=O)Nc2ccc(N3CCN([C@@H]4CCN(c5cc(F)c(C6CCC(=O)NC6=O)nc5C)C[C@@H]4F)CC3)cc21 (stereo partly drawn) [Example 14, 3-(5-((3S,4R)-4-(4-((7^1R,7^3S,E)-1^1,2^6-dimethyl-3-oxo-5^2,5^3-dihydro-1^1H,5^1H-9-oxa-4-aza-5(2,1)-benzo[d]imidazola-2(2,4)-pyridina-1(4,5)-pyrazola-7(1,3)-cyclopentanacyclononaphane-5^6-yl)piperazin-1-yl)-3-fluoropiperidin-1-yl)-3-fluoro-6-methylpyridin-2-yl)piperidine-2,6-dione]
5 | 3.15 | 66.8 |  |  |  |  | 4.07 | 73 | Cc1cc2cc(n1)-c1cnn(C)c1OC[C@H]1CC[C@H](C1)CN1/C(=N/C2=O)Nc2ccc(N3CCN(C4CCN(c5cc(F)c([C@H]6CCC(=O)NC6=O)c(F)c5)CC4)CC34COC4)cc21 [Example 10, (R)-3-(4-(4-(5-((7^1R,7^3S,E)-1^1,2^6-dimethyl-3-oxo-5^2,5^3-dihydro-1^1H,5^1H-9-oxa-4-aza-5(2,1)-benzo[d]imidazola-2(2,4)-pyridina-1(4,5)-pyrazola-7(1,3)-cyclopentanacyclononaphane-5^6-yl)-2-oxa-5,8-diazaspiro[3.5]nonan-8-yl)piperidin-1-yl)-2,6-difluorophenyl)piperidine-2,6-dione]
6 | 3.18 | 74.2 |  |  |  |  | 3.2 | 64 | Cc1cc2cc(n1)-c1cnn(C)c1OC[C@H]1CC[C@H](C1)CN1/C(=N/C2=O)Nc2ccc(N3CCN(CC4CN(c5c(C)cc(C6CCC(=O)NC6=O)nc5C)C4)CC3)cc21 (some centres unmarked) [Example 8, 3-(5-(3-((4-((7^1R,7^3S,E)-1^1,2^6-dimethyl-3-oxo-5^2,5^3-dihydro-1^1H,5^1H-9-oxa-4-aza-5(2,1)-benzo[d]imidazola-2(2,4)-pyridina-1(4,5)-pyrazola-7(1,3)-cyclopentanacyclononaphane-5^6-yl)piperazin-1-yl)methyl)azetidin-1-yl)-4,6-dimethylpyridin-2-yl)piperidine-2,6-dione]
7 | 1.4 | 65.5 |  |  |  |  | 0.307 | 91.5 | Cc1cc2cc(n1)-c1cnn(C)c1OC[C@H]1CC[C@H](C1)CN1/C(=N/C2=O)Nc2ccc(N3CCN([C@@H]4CCN(c5c(C)cc(C6CCC(=O)NC6=O)nc5C)C[C@@H]4F)CC3)cc21 (stereo partly drawn) [Example 13, 3-(5-((3S,4R)-4-(4-((7^1R,7^3S,E)-1^1,2^6-dimethyl-3-oxo-5^2,5^3-dihydro-1^1H,5^1H-9-oxa-4-aza-5(2,1)-benzo[d]imidazola-2(2,4)-pyridina-1(4,5)-pyrazola-7(1,3)-cyclopentanacyclononaphane-5^6-yl)piperazin-1-yl)-3-fluoropiperidin-1-yl)-4,6-dimethylpyridin-2-yl)piperidine-2,6-dione]
8 | 11.1 | 85.2 |  |  |  |  | 7.6 | 94.2 | Cc1cc2cc(n1)-c1cnn(C)c1OC[C@H]1CC[C@H](C1)CN1/C(=N/C2=O)Nc2ccc(N3CCN([C@H]4CCN(c5ccc(C6CCC(=O)NC6=O)nc5C)C[C@H]4F)CC3)cc21 (stereo partly drawn) [Example 15, 3-(5-((3R,4S)-4-(4-((7^1R,7^3S,E)-1^1,2^6-dimethyl-3-oxo-5^2,5^3-dihydro-1^1H,5^1H-9-oxa-4-aza-5(2,1)-benzo[d]imidazola-2(2,4)-pyridina-1(4,5)-pyrazola-7(1,3)-cyclopentanacyclononaphane-5^6-yl)piperazin-1-yl)-3-fluoropiperidin-1-yl)-6-methylpyridin-2-yl)piperidine-2,6-dione]
9 | 0.782 | 83.2 |  |  |  |  | 2.99 | 99 | Cc1cc2cc(n1)-c1cnn(C)c1OC[C@H]1CC[C@H](C1)CN1/C(=N/C2=O)Nc2ccc(N3CCN([C@@H]4CCN(c5cnc(C6CCC(=O)NC6=O)cc5C)C[C@@H]4F)CC3)cc21 (stereo partly drawn) [Example 21, 3-(5-((3S,4R)-4-(4-((7^1R,7^3S,E)-1^1,2^6-dimethyl-3-oxo-5^2,5^3-dihydro-1^1H,5^1H-9-oxa-4-aza-5(2,1)-benzo[d]imidazola-2(2,4)-pyridina-1(4,5)-pyrazola-7(1,3)-cyclopentanacyclononaphane-5^6-yl)piperazin-1-yl)-3-fluoropiperidin-1-yl)-4-methylpyridin-2-yl)piperidine-2,6-dione]
10 | 2.03 | 45.4 |  |  |  |  | 0.631 | 99.4 | Cc1cc2cc(n1)-c1cnn(C)c1OC[C@H]1CC[C@H](C1)CN1/C(=N/C2=O)Nc2ccc(N3CCN(CCc4c(C)cc(C5CCC(=O)NC5=O)nc4C)CC3)cc21 (some centres unmarked) [Example 7, 3-(5-(2-(4-((7^1R,7^3S,E)-1^1,2^6-dimethyl-3-oxo-5^2,5^3-dihydro-1^1H,5^1H-9-oxa-4-aza-5(2,1)-benzo[d]imidazola-2(2,4)-pyridina-1(4,5)-pyrazola-7(1,3)-cyclopentanacyclononaphane-5^6-yl)piperazin-1-yl)ethyl)-4,6-dimethylpyridin-2-yl)piperidine-2,6-dione]

Source: patent US20240425523A1, “Compounds for the Degradation of EGFR Kinase” (Beigene Switzerland GMBH, priority 2023, published 2024)
